Test results taken from patent US20240102060A1, “ENZYMES AND METHODS FOR FERMENTATIVE PRODUCTION OF MONOTERPENE ESTERS” (ISOBIONICS B.V., priority 2020, published 2024).

Columns and labels:
AAT9-1-c (SEQ ID NO: 2) = assay: Monoterpene and sesquiterpene alcohols tested in the presence of E. coli cells expressing AAT9-1-c; assay type: cell-based; details: E. coli cells expressing AAT9-1-c versus empty pACYCDUET-1
Procedure: (§1) 200 μL of those cultures was transferred to 20 mL of LB medium with the appropriate antibiotic in a 100 mL Erlenmeyer flask, and incubated at 37° C., 250 rpm until the A600 was 0.4 to 0.6. […] The next day, dodecane layer was recovered by centrifugation (10 min at 8000×g), diluted in ethyl acetate and analysed by GC FID.

[1] = Initial test of Lavandula angustifolia alcohol acyl transferases on linalool
[2] = Conversion of linalool to linalyl acetate by E. coli BL21-RIL expressing Citrus bergamia AAT variants, GC FID; assay type: cell-based; details: dodecane with 5 mM linalool (racemic), overnight at 18° C.
Procedure: To this end, the three different variants, and an empty pACYC-DUET-1, were introduced into chemical competent E. coli BL21-RIL (Stratagene), by heat shock transformation, and selected on LB-agar with 1% glucose and […] chloramphenicol. Transformants were transferred to 5 ml LB liquid medium with 1% glucose and 50 ug/ml chloramphenicol and grown overnight at 37° C. and 250 rpm.
as §1

Row | Molecule | conversion of the alcohol to its corresponding ester by AAT9-1-c (AAT9-1-c (SEQ ID NO: 2)) | further results
1 | CC(C)=CCC[C@](C)(O)[C@@H]1CC=C(C)CC1 [(−)-alpha-bisabolol] | not observed to be converted | 
2 | CC1=CC[C@@H](C(C)(C)O)CC1 [alpha terpineol] | corresponding esters could be observed | 
3 | C[C@@H]1CC[C@H]2C(C)(C)[C@H]3C[C@@]12CC[C@@]3(C)O [cedrol] | not observed to be converted | 
4 | CC(C)=CCC/C(C)=C/CO [geraniol] | corresponding esters could be observed | 
5 | C=CC(C)(O)CCC=C(C)CCC=C(C)C (stereo not drawn) [nerolidol] | not observed to be converted | 
6 | C[C@H]1CC[C@@]2(O)C(C)(C)[C@@H]3CC[C@@]2(C)[C@H]1C3 [patchoulol] | not observed to be converted | 
7 | CC1=CC(O)C2CC1C2(C)C (stereo not drawn) [verbenol] | corresponding esters could be observed | 
8 | SEQ ID NO: 4: alcohol acyl transferase (AAT) from Lavandula angustifolia, internal designation 1461 (protein, listed as Lavandula angustifolia) MEIEILSKQSIKPSSLTPSQLRDFKLSFIDERIPPFYIPLILYYTFDEQTNVNQSEMSDRLKTSLADALAKFYPLAGRMKGQISVDCNDQGVLCTEAIANANVLDIVSSPDPLVLDKLIPYVTNGFVSSAQEQLAIQITSFNCGGISIGICFSHRIADASTLSSFIKYWAATACRDRISAVSPVFNSATLFPPRNTPDFTPNPTSPSVRPLAPNLVIKRFLFSSQSINAMKLEVSRNSRILNPTRVEVVTALIWNRCVVAKGIERSNRSVAYHTLNLRGKIPALSERSFGNLFQMIKVESEAETTWILLVEKLRSAFEGFDVKKQLLGEKGFENAKENFMEISQLLRAGNVEVFRFSSYCRLAVYEADFGWGKPVWVSNSCYRNKNCVFLFDSVGSRGGIEAWIVMSERDMERLEQDLEFKRFASF |  | linalool as a substrate [1]: may not prefer linalool as a substrate
9 | AAT9-1-c: alcohol acyl transferase (AAT) from Citrus bergamia, variant AAT9-1-c, amino acid sequence SEQ ID NO: 2 (protein, listed as Citrus bergamia) MKIDVETISREMIKPSTPTPNHLRHYQFSHLDQIGPPFYISLLYFYHLDDDKLVSNNRHLFSDSLKSSLSNVLTKYYPLAGRIKNNYVDCNDEGVFFSEAKVSCQLSEIINEPEFPSEFKKLLPFDQEKDVVSFDSLAIAIQVNMFNCGNVAVAVMISHKIADGSSLSTFTKNWAAAARGESENVFPEFVAARLFPPEDAGGGSGTSFDPRPKKVVLKKFLFEGSKITALRDKYGFDNRIYPTRVEALSAFLWSRLAASNRIKVSSERPCMLIHAVNLRKRVEPQLPADSFGNLFAFAVTVLDENDDDGMVNKFRDAISKIDKDYLKAKKVEHSELIDLGITNGEKFGGGELGYCIISSLCKFPVYEADFGLGKPTWVAWGCFPYKNVIHFIDAKSGDGIEVWVHLEKEVMAKFENDQELLAYVST |  | conversion of linalool to linalyl acetate [2]: linalool was converted to linalyl acetate
10 | AAT9-1-a: inactive variant of the alcohol acyl transferase from Citrus bergamia, Tryptophan at position 371, SEQ ID NO: 6 (protein, listed as Citrus bergamia) MKIDVETISREMIKPSTPTPNHLRHYQFSHLDQIGPPFYISLLYFYHLDDDKLVSNNRHLFSDSLKSSLSNVLTKYYPLAGRIKNNYVDCNDEGVFFSEAKVSCQLSEIINEPEFPSEFKKLLPFDQEKDVVSFDSLAIAIQVNMFNCGNVAVAVMISHKIADGSSLSTFTKNWAAAARGESENVFPEFVAARLFPPEDAGGGSGTSFDPRPKKVVLKKFLFEGSKITALRDKYGFDNRIYPTRVEALSAFLWSRLAASNRIKVSSERPCMLIHAVNLRKRVEPQLPADSFGNLFAFAVTVLDENDDDGMVNKFRDAISKIDKDYLKAKKVEHSELIDLGITNGEKFGGGELGYCIISSLCKFPVYEADFWLGKPTWVAWGCFPYKNVIHFIDAKSGDGIEVWVHLEKEVMAKFENDQELLAYVST |  | conversion of linalool to linalyl acetate [2]: could not be observed
11 | AAT9-2-a: inactive variant of the alcohol acyl transferase from Citrus bergamia, SEQ ID NO: 8 (protein, listed as Citrus bergamia) MKISVETISREMIKPSTPTPNHLRHYHFSYLDQTAPPLYMSLLYFYHLDDHKLVSNNNHLFINSLKSSLSNVLTKYYPLAGRVKNNYVDCNDEGVVFSEAKVSCLLSEIINELPSEFNKLHPFDQEKDVVSINGLPIAIQVNMFNCGSVAIAVMIFHKIADAASLITFTKNWAAAARGGSGNVFPEFVAARLFPPQDAGGSSGVSVDPRPKKIVLKKFLFEGPKITALRDKYGLDNGIYPTRVEALSAFIWSRLAASTRIKISPERPYMLVHLVNLRKRMEPPLPDDSFGNIIGAAVTVLEENDDDDRMVNKFRDAICKVDKDYLKVMKLEHSELTDLVITNGEIVDRGELGYCFFSSLCKFPVYEADFGLGKPMWVAWGRLPYKNIIHLIDTKSGDGIEAWIHLEEEVMAKFGNDQELLAYVSP |  | conversion of linalool to linalyl acetate [2]: could not be observed
12 | SEQ ID NO: 3: alcohol acyl transferase (AAT) from Lavandula angustifolia, internal designation 10056 (protein, listed as Lavandula angustifolia) MEIETRVISTEIIKPSSPTPKFLQNHRLSFLDQIAPPIFMPVVYFYESNTKFPNSQQSNHLKNSLSQVLTKFYPLAGRLVGNLYVDCDDGGVPFVEAEANFDLSQIITNPNPRNMSKFLPYNESHDFCMAVQATYFRCGGVAVGLLVSHKIADALSFFLFANFWSAVARSGEGGGGQPPKFDVATYFPPRDISGYEPSTGIMKEEITTRIFTFSDKKIAVLREKYAATGSGGDGDLPQRRPTRVEALSAFIWTRFINSTGVKSDPNKIYTVMHAVNLRTRTDPPLTEYHFGNISRLAIANPDVGESGVTDGGVELMQRVREAIKAVDGAYVADLKEGEKHLSLMREKMAQANKGELVSFSFTSLCRFPLYDADFGWGKPVWVGSAGFAYKNLVTFMDTRDGDGIEAWIHSRREDMEKFEVDLELQDFLSHDKSSLISLV |  | linalool as a substrate [1]: may not prefer linalool as a substrate
